What was measured:
Mushroom tyrosinase [1] = target: T1, Mushroom tyrosinase (Agaricus bisporus, UniProt O42713+Q00024+C7FF04+C7FF05); assay: Inhibition of mushroom tyrosinase using L-Dopa as substrate preincubated for 10 mins followed by substrate addition and measured after 20 mins
Mushroom tyrosinase [2] = target: T1, Mushroom tyrosinase; assay: Inhibition of mushroom tyrosinase using L-Dopa as substrate […]
Mushroom tyrosinase [3] = target: T1, Mushroom tyrosinase; assay: Inhibition of mushroom tyrosinase

Row | IC50 (Mushroom tyrosinase [1]) | SMILES | further results
1 | 8.175 µg/mL | Cc1ccc(S(=O)(=O)n2cc(-c3oc4cc(Br)cc(Br)c4c(=O)c3O)c3ccccc32)cc1 | –
2 | – | O=C(Nc1cccc(Cl)c1)Nc1ccc2c(c1)S(=O)(=O)NC2=O | IC50 (Mushroom tyrosinase [2]): 5.85 µM
3 | 0.093 µg/mL | COc1ccc(-c2oc3cc(Br)cc(Br)c3c(=O)c2O)cc1OC | –
4 | 0.57 µg/mL | CN(C)c1ccc(-c2cc(=O)c3c(Br)cc(Br)cc3o2)cc1 | –
5 | 0.23 µM | O=c1c(O)c(-c2ccc(O)cc2)oc2ccccc12 | –
6 | 0.5 µg/mL | CN(C)c1ccc(-c2oc3cc(Br)cc(Br)c3c(=O)c2O)cc1 | –
7 | 22.22 µg/mL | Cc1ccc(S(=O)(=O)n2cc(-c3cc(=O)c4c(Br)cc(Br)cc4o3)c3ccccc32)cc1 | –
8 | 23.58 µg/mL | O=c1c(O)c(-c2c[nH]c3ccccc23)oc2cc(Br)cc(Br)c12 | –
9 | 2.5 µg/mL | O=c1c(O)c(-c2ccco2)oc2cc(Br)cc(Br)c12 | –
10 | 4.26 µg/mL | O=C(O)c1ccc(-c2oc3cc(Br)cc(Br)c3c(=O)c2O)cc1 | –
11 | – | CCN1CCN(CC(=O)Nc2ccc3oc(-c4ccc(C(C)(C)C)cc4)nc3c2)CC1 | IC50 (Mushroom tyrosinase [2]): 8.14 µM
12 | 4.2 µg/mL | O=c1cc(-c2ccc(Cl)cc2)oc2cc(Br)cc(Br)c12 | –
13 | – | O=C(O)S[C@H]1N=N[C@@H](NC(=S)Nc2cccc(C(F)(F)F)c2)S1 | IC50 (Mushroom tyrosinase [2]): 6.13 µM
14 | 3.41 µg/mL | O=c1cc(-c2cccc3ccccc23)oc2cc(Br)cc(Br)c12 | –
15 | 0.15 µg/mL | O=c1c(O)c(-c2cccc([N+](=O)[O-])c2)oc2cc(Br)cc(Br)c12 | –
16 | 9.7 µg/mL | O=C(O)c1ccc(-c2cc(=O)c3c(Br)cc(Br)cc3o2)cc1 | –
17 | 20.5 µg/mL | O=c1cc(-c2ccc(F)cc2)oc2cc(Br)cc(Br)c12 | –

Row | IC50 (Mushroom tyrosinase [1]) | SMILES | further results
18 | 0.564 µg/mL | O=c1c(O)c(-c2cccc3ccccc23)oc2cc(Br)cc(Br)c12 | –
19 | – | C=CCc1ccc(OC(=O)COC(=O)/C=C/c2ccc(O)cc2)c(OC)c1 | IC50 (Mushroom tyrosinase [3]): 3 µM
20 | 0.49 µg/mL | COc1ccc(-c2cc(=O)c3c(Br)cc(Br)cc3o2)cc1OC | –
21 | 3.28 µg/mL | O=c1cc(-c2cccc([N+](=O)[O-])c2)oc2cc(Br)cc(Br)c12 | –
22 | 0.126 µg/mL | Cc1ccc(-c2oc3cc(Br)cc(Br)c3c(=O)c2O)cc1 | –
23 | 7.2 µg/mL | Cc1ccc(-c2cc(=O)c3c(Br)cc(Br)cc3o2)cc1 | –
24 | 11.33 µg/mL | Cc1ccc(-c2cc(=O)c3c(Br)cc(Br)cc3o2)c(C)c1 | –
25 | 0.68 µg/mL | O=c1cc(-c2cccs2)oc2cc(Br)cc(Br)c12 | –
26 | 0.71 µg/mL | O=c1c(O)c(-c2ccc(Cl)cc2)oc2cc(Br)cc(Br)c12 | –
27 | 0.27 µg/mL | O=c1cc(-c2ccc([N+](=O)[O-])cc2)oc2cc(Br)cc(Br)c12 | –
28 | – | COc1ccc(/C=C2\NC(=S)NC2=O)c(OC)c1 | IC50 (Mushroom tyrosinase [2]): 1.07 µM
29 | 3.01 µg/mL | O=c1c(O)c(-c2cccs2)oc2cc(Br)cc(Br)c12 | –
30 | 0.27 µg/mL | O=c1c(O)c(-c2ccc([N+](=O)[O-])cc2)oc2cc(Br)cc(Br)c12 | –
31 | 2.36 µg/mL | O=c1c(O)c(-c2ccc(F)cc2)oc2cc(Br)cc(Br)c12 | –
32 | 2.07 µg/mL | O=c1cc(-c2ccco2)oc2cc(Br)cc(Br)c12 | –
33 | 0.22 µg/mL | O=c1cc(-c2c[nH]c3ccccc23)oc2cc(Br)cc(Br)c12 | –
34 | 7.57 µg/mL | Cc1ccc(-c2oc3cc(Br)cc(Br)c3c(=O)c2O)c(C)c1 | –
